According to ChEMBL document CHEMBL5532663, “Discovery of Potent and Selective Phosphatidylinositol 3-Phosphate 5-Kinase (PIKfyve) Inhibitors as Methuosis Inducers” (J Med Chem, 2024):

Legend:
[1] = molecular target: T1, 1-phosphatidylinositol 3-phosphate 5-kinase (Homo sapiens, UniProt Q9Y2I7); test: Binding affinity to PIKfyve (unknown origin) assessed as dissociation constant by KINOMEscan profiling method
[2] = molecular target: T1, 1-phosphatidylinositol 3-phosphate 5-kinase
MDA-MB-231 = test: cells; settings: Homo sapiens, MDA-MB-231, 24 h
Description: Antiproliferative activity against human MDA-MB-231 cells assessed as inhibition of cell viability incubated for 24 hrs by CCK8 assay

HeLa = test: cells; settings: Homo sapiens, 24 h
Description: Antiproliferative activity against human HeLa cells assessed as inhibition of cell viability incubated for 24 hrs by CCK8 assay

T1 sequence (Q9Y2I7 whole entry): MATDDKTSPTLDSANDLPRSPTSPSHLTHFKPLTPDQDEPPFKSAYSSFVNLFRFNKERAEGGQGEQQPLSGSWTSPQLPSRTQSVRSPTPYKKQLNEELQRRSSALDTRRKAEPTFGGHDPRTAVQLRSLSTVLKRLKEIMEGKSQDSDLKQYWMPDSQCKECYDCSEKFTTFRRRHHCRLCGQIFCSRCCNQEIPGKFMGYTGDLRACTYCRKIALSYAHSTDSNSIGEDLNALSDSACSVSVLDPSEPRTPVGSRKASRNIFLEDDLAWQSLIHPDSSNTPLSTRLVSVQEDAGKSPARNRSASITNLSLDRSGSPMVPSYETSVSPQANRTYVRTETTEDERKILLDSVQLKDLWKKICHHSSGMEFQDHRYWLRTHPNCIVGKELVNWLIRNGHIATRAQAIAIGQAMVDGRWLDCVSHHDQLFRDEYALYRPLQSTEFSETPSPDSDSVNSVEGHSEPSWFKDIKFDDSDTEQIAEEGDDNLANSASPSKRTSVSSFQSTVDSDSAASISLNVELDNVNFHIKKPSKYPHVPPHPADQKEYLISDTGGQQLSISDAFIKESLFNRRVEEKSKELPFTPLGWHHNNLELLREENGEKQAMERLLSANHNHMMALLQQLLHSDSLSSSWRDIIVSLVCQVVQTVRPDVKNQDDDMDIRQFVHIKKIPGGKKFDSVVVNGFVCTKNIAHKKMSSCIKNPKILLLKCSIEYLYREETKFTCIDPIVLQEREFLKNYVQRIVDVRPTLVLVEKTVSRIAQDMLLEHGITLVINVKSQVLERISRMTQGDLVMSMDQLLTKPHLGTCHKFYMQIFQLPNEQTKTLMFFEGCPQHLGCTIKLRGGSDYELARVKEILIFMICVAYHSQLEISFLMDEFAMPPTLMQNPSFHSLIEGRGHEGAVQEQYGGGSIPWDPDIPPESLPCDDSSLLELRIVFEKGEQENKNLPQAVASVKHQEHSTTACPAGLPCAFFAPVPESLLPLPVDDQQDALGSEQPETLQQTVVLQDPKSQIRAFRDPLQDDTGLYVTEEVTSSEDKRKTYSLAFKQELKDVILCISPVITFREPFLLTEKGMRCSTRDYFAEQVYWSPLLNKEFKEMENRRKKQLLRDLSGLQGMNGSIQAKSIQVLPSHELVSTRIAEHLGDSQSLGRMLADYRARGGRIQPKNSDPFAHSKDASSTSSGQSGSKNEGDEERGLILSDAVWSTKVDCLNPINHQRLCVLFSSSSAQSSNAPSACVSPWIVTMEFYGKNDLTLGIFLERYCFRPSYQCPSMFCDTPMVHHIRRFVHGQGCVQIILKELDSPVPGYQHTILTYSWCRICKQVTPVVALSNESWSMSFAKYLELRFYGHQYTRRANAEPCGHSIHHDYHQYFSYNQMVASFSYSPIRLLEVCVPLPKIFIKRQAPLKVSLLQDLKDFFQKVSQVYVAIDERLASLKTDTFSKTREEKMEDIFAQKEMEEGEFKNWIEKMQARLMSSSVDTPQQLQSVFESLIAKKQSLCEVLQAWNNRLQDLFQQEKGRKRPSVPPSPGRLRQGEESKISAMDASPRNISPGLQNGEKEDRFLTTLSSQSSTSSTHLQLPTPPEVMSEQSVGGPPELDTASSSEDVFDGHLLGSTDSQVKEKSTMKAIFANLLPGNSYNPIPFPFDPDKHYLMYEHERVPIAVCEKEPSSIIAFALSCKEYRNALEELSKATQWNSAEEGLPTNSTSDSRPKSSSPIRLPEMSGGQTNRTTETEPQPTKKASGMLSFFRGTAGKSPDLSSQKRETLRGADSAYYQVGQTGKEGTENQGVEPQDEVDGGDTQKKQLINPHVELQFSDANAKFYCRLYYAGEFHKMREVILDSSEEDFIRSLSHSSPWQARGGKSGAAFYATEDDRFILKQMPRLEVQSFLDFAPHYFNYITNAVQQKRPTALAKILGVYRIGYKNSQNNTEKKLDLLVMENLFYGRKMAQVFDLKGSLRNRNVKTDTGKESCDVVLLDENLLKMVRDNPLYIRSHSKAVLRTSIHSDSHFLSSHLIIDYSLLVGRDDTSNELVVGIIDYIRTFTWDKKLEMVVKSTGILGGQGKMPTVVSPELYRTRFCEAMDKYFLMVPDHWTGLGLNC

Kd [1]	Kd [2]	IC50 (MDA-MB-231)	IC50 (HeLa)	SMILES
5.3 nM	3.75 nM	–	–	COc1ccc2[nH]c(C)c(/C=C/C(=O)c3ccncc3)c2c1
–	1.65 nM	350 nM	430 nM	Nc1ncnc2c1c(-c1cc3ccccc3o1)cn2[C@H]1CC[C@@H](N)CC1
–	–	> 5000 nM	> 5000 nM	Nc1ncnc2c1c(-c1coc3ccccc13)cn2[C@H]1CC[C@@H](N)CC1
–	–	100 nM	140 nM	Cc1cccc(/C=N/Nc2cc(N3CCOCC3)nc(OCCc3ccccn3)n2)c1 [APILIMOD]
